Reference: patent US7592003B2, “Regulation of toll-like receptors on stem cells” (Oklahoma Medical Research Foundation, priority 2005, dated 2009)

System: LKS^+ cells
Experiment: Serum-free, stromal cell-free culture of sorted LKS+ cells, lineage markers by flow cytometry
Type: cell-based, mouse
Protocol: FIGS. 2A-D—Activation of TLRs through MyD88 on LKS^+ cells leads to myeloid cell differentiation. (FIG. 2A) Left, sorted LKS^+ cells (10,000 cells/well) from C57BL/6 or MyD88^−/− mice were cultured in the presence of FL and SCF with medium alone, LPS (10 μg/ml) or Pam3CSK4 (1 μg/ml). After 72 h in culture, cells were analyzed by flow cytometry for expression of lineage markers. Percentages indicate the frequencies of Lin^+ or Lin^− cells. Right, the bar graph depicts yields, i.e., numbers of Lin^+ cell recovered per input progenitor and the data represent mean values with standard deviations from triplicate cultures (*P<0.01). The results are representative of five independent experiments. […] After 72 or 96 h in culture, cells were analyzed by flow cytometry for Mac-1 and F4/80. […] After 72 h in culture, cells were analyzed by flow cytometry for expression of lineage markers. […]
FIG. 11A-B—TLR stimulation causes a progression of Lin^+ cells from LKS^+ cells and soluble CD14 augments the acquisition of Mac-1 and F4/80. […] After 24 or 48 h in culture, cells were analyzed by flow cytometry for expression of lineage markers and percentages of Lin^+ or Lin^− cells are indicated. […] After 24, 48, or 72 h in culture, cells were analyzed by flow cytometry for expression of lineage markers. […] After 72 h in culture, cells were analyzed by flow cytometry for expression of Mac-1 and F4/80. […]

Pam3CSK4
Increase of absolute numbers of Lin+ cells (LKS+ cells with FL and SCF, within 72 h): approximately eight-fold
Increase of Lin+ cells with cells from MyD88-deficient mice (MyD88-deficient LKS+ cells, 72 h): did not occur
